The target in assay [1] is T1, Estrogen receptor (Homo sapiens, UniProt P03372).
T1 sequence (P03372 whole entry): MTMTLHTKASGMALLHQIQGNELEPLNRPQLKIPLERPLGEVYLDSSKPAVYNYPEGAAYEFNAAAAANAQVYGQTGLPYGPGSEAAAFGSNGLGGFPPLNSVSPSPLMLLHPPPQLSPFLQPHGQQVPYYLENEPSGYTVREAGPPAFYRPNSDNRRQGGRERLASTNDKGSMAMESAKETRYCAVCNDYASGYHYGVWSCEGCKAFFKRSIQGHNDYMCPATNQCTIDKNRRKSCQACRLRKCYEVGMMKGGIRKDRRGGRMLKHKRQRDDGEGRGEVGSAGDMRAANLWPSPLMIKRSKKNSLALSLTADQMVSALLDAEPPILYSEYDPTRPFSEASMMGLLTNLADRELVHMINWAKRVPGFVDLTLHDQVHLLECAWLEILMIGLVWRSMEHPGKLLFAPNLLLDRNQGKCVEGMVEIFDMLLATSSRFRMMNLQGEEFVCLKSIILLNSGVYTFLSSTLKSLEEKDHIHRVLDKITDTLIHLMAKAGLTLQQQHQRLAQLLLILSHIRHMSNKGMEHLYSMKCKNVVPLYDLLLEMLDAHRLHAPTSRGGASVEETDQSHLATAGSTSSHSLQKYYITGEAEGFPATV
The format is functional.

Another assay concerns the target T2, Glucocorticoid receptor (Homo sapiens, UniProt P04150).
T2 sequence (P04150 whole entry): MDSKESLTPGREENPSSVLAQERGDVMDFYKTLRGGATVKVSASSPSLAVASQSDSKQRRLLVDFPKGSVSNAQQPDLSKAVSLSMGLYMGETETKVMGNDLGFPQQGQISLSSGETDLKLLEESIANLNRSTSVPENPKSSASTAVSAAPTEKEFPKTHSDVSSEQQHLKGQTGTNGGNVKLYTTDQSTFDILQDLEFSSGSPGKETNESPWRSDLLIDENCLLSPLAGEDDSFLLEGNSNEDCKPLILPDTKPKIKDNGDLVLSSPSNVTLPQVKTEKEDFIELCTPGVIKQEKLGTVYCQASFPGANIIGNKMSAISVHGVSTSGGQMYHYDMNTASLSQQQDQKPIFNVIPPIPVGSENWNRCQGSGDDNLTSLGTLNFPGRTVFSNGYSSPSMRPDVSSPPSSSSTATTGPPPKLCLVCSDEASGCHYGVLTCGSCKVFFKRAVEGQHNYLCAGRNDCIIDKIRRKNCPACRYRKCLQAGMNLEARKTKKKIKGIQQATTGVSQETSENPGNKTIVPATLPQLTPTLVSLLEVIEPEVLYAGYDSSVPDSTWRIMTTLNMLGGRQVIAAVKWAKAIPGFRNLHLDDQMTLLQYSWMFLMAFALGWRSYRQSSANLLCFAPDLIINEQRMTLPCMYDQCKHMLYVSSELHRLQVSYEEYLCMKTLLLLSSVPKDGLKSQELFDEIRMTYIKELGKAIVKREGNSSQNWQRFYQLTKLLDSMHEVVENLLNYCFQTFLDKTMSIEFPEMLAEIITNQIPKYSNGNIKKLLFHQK
The format is functional.

Assay [2] addresses T1, Estrogen receptor. The format is functional. The source holds these as a separate data set.
In assay [3] the target is T3, Type-1 angiotensin II receptor (Homo sapiens, UniProt P30556).
T3 sequence (P30556 whole entry): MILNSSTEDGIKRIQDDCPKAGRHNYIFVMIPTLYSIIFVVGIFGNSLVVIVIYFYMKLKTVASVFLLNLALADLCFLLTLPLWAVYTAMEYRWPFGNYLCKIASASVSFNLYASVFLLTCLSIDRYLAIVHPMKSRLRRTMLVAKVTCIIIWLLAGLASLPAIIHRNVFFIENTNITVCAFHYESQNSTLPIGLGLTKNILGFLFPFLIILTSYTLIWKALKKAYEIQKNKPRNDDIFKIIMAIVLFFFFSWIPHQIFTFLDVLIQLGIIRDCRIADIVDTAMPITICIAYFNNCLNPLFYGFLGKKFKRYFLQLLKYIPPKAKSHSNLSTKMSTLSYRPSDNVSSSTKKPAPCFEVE

The target in assay [4] is T4, Type-2 angiotensin II receptor (Homo sapiens, UniProt P50052).
T4 sequence (P50052 whole entry): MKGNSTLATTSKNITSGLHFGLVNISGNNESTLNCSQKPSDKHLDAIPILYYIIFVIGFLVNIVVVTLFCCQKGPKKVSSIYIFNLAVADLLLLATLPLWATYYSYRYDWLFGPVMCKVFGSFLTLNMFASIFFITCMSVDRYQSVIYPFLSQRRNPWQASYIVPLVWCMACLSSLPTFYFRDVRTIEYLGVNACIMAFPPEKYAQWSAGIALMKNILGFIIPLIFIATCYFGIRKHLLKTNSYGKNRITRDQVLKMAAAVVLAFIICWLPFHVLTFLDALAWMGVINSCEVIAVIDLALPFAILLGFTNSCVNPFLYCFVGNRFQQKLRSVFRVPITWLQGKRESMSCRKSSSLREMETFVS
The format is functional.

In assay [5] the target is T4, Type-2 angiotensin II receptor. The assay is classed as functional. This is another data set of the same source.
Assay [6] addresses Rod cGMP-specific 3',5'-cyclic phosphodiesterase subunit alpha (Homo sapiens, UniProt P16499). The assay is classed as functional.
In another assay the target is T5, Substance-K receptor (Homo sapiens, UniProt P21452).
T5 sequence (P21452 whole entry): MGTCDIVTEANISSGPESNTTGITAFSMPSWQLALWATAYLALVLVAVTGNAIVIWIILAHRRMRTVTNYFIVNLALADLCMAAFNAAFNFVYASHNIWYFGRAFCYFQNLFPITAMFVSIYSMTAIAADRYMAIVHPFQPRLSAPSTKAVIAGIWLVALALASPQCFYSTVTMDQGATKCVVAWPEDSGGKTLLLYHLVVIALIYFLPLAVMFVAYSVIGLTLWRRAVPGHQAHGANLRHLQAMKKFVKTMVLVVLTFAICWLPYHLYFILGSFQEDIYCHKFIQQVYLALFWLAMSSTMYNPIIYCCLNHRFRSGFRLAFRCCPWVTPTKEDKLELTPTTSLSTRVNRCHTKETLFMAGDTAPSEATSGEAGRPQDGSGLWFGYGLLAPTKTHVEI

“And” between values parts separate entries of the source, which are not always exact repeats. Equal values may be shown once.
Note: assay procedure not described here.

Sequence of Rod cGMP-specific 3',5'-cyclic phosphodiesterase subunit alpha (P16499 whole entry): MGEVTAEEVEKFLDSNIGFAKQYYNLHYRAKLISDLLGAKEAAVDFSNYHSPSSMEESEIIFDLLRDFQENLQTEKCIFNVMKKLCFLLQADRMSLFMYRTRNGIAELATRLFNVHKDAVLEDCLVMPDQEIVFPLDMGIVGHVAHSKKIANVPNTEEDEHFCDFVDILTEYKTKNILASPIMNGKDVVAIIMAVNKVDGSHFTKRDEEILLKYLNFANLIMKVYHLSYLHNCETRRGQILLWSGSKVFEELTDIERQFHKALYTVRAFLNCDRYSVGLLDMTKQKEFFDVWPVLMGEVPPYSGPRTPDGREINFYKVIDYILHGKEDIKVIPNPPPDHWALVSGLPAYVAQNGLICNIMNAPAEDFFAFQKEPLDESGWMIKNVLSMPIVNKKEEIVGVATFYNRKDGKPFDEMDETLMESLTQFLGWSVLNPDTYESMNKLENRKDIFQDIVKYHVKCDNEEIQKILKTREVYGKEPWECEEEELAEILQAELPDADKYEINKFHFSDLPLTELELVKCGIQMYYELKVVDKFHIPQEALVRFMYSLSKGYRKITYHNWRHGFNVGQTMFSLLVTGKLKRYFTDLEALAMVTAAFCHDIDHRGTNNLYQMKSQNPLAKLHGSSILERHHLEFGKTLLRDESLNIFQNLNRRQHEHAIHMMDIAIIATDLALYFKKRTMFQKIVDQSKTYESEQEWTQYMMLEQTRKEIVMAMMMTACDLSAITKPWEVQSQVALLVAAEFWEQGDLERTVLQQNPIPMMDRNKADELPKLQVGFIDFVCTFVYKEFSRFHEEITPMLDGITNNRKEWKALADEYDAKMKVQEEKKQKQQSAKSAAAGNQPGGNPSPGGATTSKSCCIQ

Consider `CC(=O)O[C@H]1CC[C@@]2(C)C(=CC[C@@H]3[C@@H]2CC[C@]2(C)C(c4cccnc4)=CC[C@@H]32)C1` [ABIRATERONE ACETATE], for which the AC50 at Estrogen receptor [1], on Glucocorticoid receptor and on Estrogen receptor [2] was > 30 µM each time.

In the case of `CCCCc1ncc(/C=C(\Cc2cccs2)C(=O)O)n1Cc1ccc(C(=O)O)cc1` [EPROSARTAN], the AC50 is 0.005 µM and 0.0055 µM in assay [3]; > 100 µM in assay [4]; > 100 µM in assay [5]; > 10 µM in assay [6]; > 10 µM on Substance-K receptor.

`C[C@](N)(Cc1ccc(O)c(O)c1)C(=O)O` [METHYLDOPA]: the AC50 in assay [5] was > 100 µM.

In the case of `CCCc1nc(C(C)(C)O)c(C(=O)OCc2oc(=O)oc2C)n1Cc1ccc(-c2ccccc2-c2nnn[nH]2)cc1` [OLMESARTAN MEDOXOMIL], the activity in assay [4] was half-maximal at 74.3 µM (AC50).

With `N#Cc1ccc([C@H]2CCc3cncn32)c(F)c1` [OSILODROSTAT], the AC50 (in assay [6]; at Substance-K receptor) was > 10 µM each time.

As for `C/C(O)=C(\C#N)C(=O)Nc1ccc(C(F)(F)F)cc1` [TERIFLUNOMIDE], the half-maximal activity concentration (AC50) at Estrogen receptor [1] is > 30 µM; at Glucocorticoid receptor, > 10 µM; on Estrogen receptor [2], > 30 µM.

The values above are taken from ChEMBL document CHEMBL5291721, “A preclinical secondary pharmacology resource illuminates target-adverse drug reaction associations of marketed drugs” (Nat Commun, 2023).
